Calls of active or inactive are those of the source. The calls are words filed in the database; no cut-off is given here.

The nature of data set [1]: Intracellular uptake in human MCF7 cell mitochondria at 10 uM after 4 hrs using Hoechst staining by fluorescence microscopic analysis. Type of data set: ADME. The settings on record: mcf7, 4 h.
The subject of data set [2] is MCF7. The experiment in a line: Cellular uptake in human MCF7 cells assessed as increase of intracellular fluorescence up to 60 mins using alexa fluor 488, phalloidin 488/525, mito-tracker 490/516 staining by fluorescence microscopic analysis. In kind it is ADME, cell-based. The settings on record: mcf7, 1 h.
Data set [3] can be described thus: Intracellular uptake in human MCF7 cell mitochondria at 10 uM after 4 hrs using mitotracker green staining by fluorescence microscopic analysis. Type of data set: ADME. The settings on record: mcf7, 4 h.
The subject of data set [4] is MCF7. Briefly: Induction of DNA fragmentation in human MCF7 cell nucleus treated at 5 uM followed by irradiated with 660 nm of diode laser light at 50mW for 30 mins by DNA ladder assay. In kind it is functional, cell-based.
The test system of data set [5] is MCF7. Briefly: Induction of extrinsic apoptosis in human MCF7 cells assessed as increase of […] level at 6 uM treated for 1 hr followed by irradiated with 660 nm of diode laser light at 50mW for 30 mins measured after 45 mins using (z-IETD)2-Rh110 by fluorescence assay. In kind it is functional, cell-based.
The subject of data set [6] is MCF7. Briefly: Induction of intrinsic apoptosis in human MCF7 cells assessed as increase of casepase-9 level at 3 to 5 uM treated for 1 hr followed by irradiated with 660 nm of diode laser light at 50mW for 30 mins measured after 45 mins using (Ac-LEHD)2-Rh110 by fluorescence assay in presence of caspase-2 inhibitor. In kind it is functional, cell-based.
Data set [7] concerns MCF7. The experiment in a line: Induction of mitochondrial membrane disruption in human MCF7 cells assessed as calcein-AM accumulation in mitochondria treated for 1 hr followed by irradiated with 660 nm of diode laser light at 50mW for 30 mins measured after 45 mins by fluorescence assay. Type of data set: functional, cell-based.
Data set [8] concerns MCF7. Briefly: Induction of extrinsic apoptosis in human MCF7 cells assessed as increase of casepase-3 level at 6 uM treated for 1 hr followed by irradiated with 660 nm of diode laser light at 50mW for 30 mins measured after 45 mins using (z-DEVD)2-Magic Red by fluorescence assay. In kind it is functional, cell-based.
For data set [9], the system named is MCF7. The experiment in a line: Induction of extrinsic apoptosis in human MCF7 cells assessed as increase of casepase-3 level at 5 uM treated for 1 hr followed by irradiated with 660 nm of diode laser light at 50mW for 30 mins measured after 45 mins using (z-DEVD)2-Magic Red by fluorescence assay in presence of caspase-2 inhibitor. In kind it is functional, cell-based.

In data set [10] the test system is MCF7. Briefly: Induction of extrinsic apoptosis in human MCF7 cells assessed as increase of casepase-3 level at 5 uM treated for 1 hr followed by irradiated with 660 nm of diode laser light at 50mW for 30 mins measured after 45 mins using (z-DEVD)2-Magic Red by fluorescence assay. In kind it is functional, cell-based.
Data set [11] can be described thus: Intracellular uptake in human MCF7 cell F-actin filament at 10 uM after 4 hrs using Hoechst staining by fluorescence microscopic analysis. Type of data set: ADME, cell-based. The settings on record: mcf7, 4 h.
Data set [12] relates to MCF7. The experiment in a line: Induction of mitochondrial membrane disruption in human MCF7 cells assessed as calcein-AM accumulation in cytosol treated for 1 hr followed by irradiated with 660 nm of diode laser light at 50mW for 30 mins measured after 45 mins by fluorescence assay. Type of data set: functional, cell-based.
Data set [13] deals with MCF7. The experiment in a line: Photo-toxicity in human MCF7 cells treated for 24 hrs followed by irradiated with 660 nm of diode laser light at 50mW for 30 mins measured after 24 hrs by MTT assay. Type of data set: functional, cell-based. The settings on record: MCF7, light or radiation study.
Data set [14] deals with MCF7. The experiment in a line: Induction of extrinsic apoptosis in human MCF7 cells assessed as increase of casepase-3 level at 6 uM treated for 1 hr followed by irradiated with 660 nm of diode laser light at 50mW for 30 mins measured after 45 mins using (z-DEVD)2-Magic Red by fluorescence assay in presence of caspase-8 inhibitor Z-IETD-FMK. Type of data set: functional, cell-based.

The test system of data set [15] is MCF7. The experiment in a line: Induction of extrinsic apoptosis in human MCF7 cells assessed as increase of […] level at 6 uM treated for 1 hr followed by irradiated with 660 nm of diode laser light at 50mW for 30 mins measured after 45 mins using (z-IETD)2-Rh110 by fluorescence assay in presence of caspase-8 inhibitor Z-IETD-FMK. In kind it is functional, cell-based.

The test system of data set [16] is MCF7. Briefly: Induction of mitochondrial membrane disruption in human MCF7 cells assessed as calcein-AM accumulation in mitochondria at 1 to 3 uM treated for 1 hr followed by irradiated with 660 nm of diode laser light at 50mW for 30 mins measured after 45 mins by fluorescence assay. In kind it is functional, cell-based.
For data set [17], the system named is MCF7. The experiment in a line: Dark toxicity in human MCF7 cells up to 40 uM after 24 hrs by MTT assay. In kind it is cell-based. The settings on record: mcf7, 24 h.
The subject of data set [18] is MCF7. The experiment in a line: Cellular uptake in human MCF7 cells assessed as increase of intracellular fluorescence after 20 mins using alexa fluor 488, phalloidin 488/525, mito-tracker 490/516 staining by fluorescence microscopic analysis. In kind it is ADME, cell-based. The settings on record: mcf7, 20 min.
Data set [19] has as its system MCF7. Briefly: Induction of intrinsic apoptosis in human MCF7 cells assessed as increase of casepase-9 level at 3 to 5 uM treated for 1 hr followed by irradiated with 660 nm of diode laser light at 50mW for 30 mins measured after 45 mins using (Ac-LEHD)2-Rh110 by fluorescence assay. Type of data set: functional, cell-based.
Data set [20] has as its system MCF7. Briefly: Induction of ROS production in human MCF7 cells treated for 1 hr followed by irradiated with 660 nm of diode laser light at 50mW for 30 mins using DCFDA by fluorescence microscopic analysis. Type of data set: functional, cell-based.
Data set [21] relates to MCF7. The experiment in a line: Induction of extrinsic apoptosis in human MCF7 cells assessed as increase of casepase-3 level at 3 to 5 uM treated for 1 hr followed by irradiated with 660 nm of diode laser light at 50mW for 30 mins measured after 45 mins using (z-DEVD)2-Magic Red by fluorescence assay. Type of data set: functional, cell-based.
The nature of data set [22]: Intracellular uptake in human MCF7 cell nucleus at 10 uM after 4 hrs using Hoechst staining by fluorescence microscopic analysis. Type of data set: ADME, cell-based. The settings on record: mcf7, 4 h.
The test system of data set [23] is MCF7. The experiment in a line: Cellular uptake in human MCF7 cells assessed as increase of intracellular fluorescence after 1 hr using alexa fluor 488, phalloidin 488/525, mito-tracker 490/516 staining by FACS analysis relative to control. Type of data set: ADME, cell-based. The settings on record: mcf7, 1 h.
Data set [24] in a line: Intracellular uptake in human MCF7 cell lysosomes at 10 uM after 4 hrs using Hoechst staining by fluorescence microscopic analysis. Type of data set: ADME, cell-based, Lysosome. The settings on record: mcf7, 4 h.

Take `O=S(=O)([O-])c1cccc2cc(-c3c4nc(c(-c5cc6cccc(S(=O)(=O)[O-])c6s5)c5ccc([nH]5)c(-c5cc6cccc(S(=O)(=O)[O-])c6s5)c5nc(c(-c6cc7cccc(S(=O)(=O)[O-])c7s6)c6ccc3[nH]6)C=C5)C=C4)sc12.[Na+].[Na+].[Na+].[Na+]`: the Drug uptake entry in data set [1] was “Active”; with MCF7 [2], “Active”; in data set [3], “Active”; in data set [11], “Not Active”; with MCF7 [18], “Active”; in data set [22] it was “Active”. For the same molecule, the Drug uptake entry in data set [24] is “Not Active”. Further, the result with MCF7 [4], with MCF7 [5], in the data set with MCF7 [8], in the data set with MCF7 [10], with MCF7 [16] and in the data set on MCF7 [19] was Active. In addition, in the data set on MCF7 [21], the outcome was Active. The result in the data set with MCF7 [6], with MCF7 [9], with MCF7 [14] and in the data set with MCF7 [15] was inactive. Moreover, the Activity entry in the data set on MCF7 [7] was “Dose-dependent effect”; in the data set on MCF7 [12], “Dose-dependent effect”; with MCF7 [17] it was “Non-toxic”; in the data set with MCF7 [20] it was “Dose-dependent effect”. In the data set with MCF7 [13], this molecule registered an IC50 of 5 µM. Also, the “fold change (FC)” value in the data set on MCF7 [23] is recorded as 3.

`O=S(=O)(O)c1ccc(-c2c3nc(c(-c4ccc(S(=O)(=O)O)cc4)c4ccc([nH]4)c(-c4ccc(S(=O)(=O)O)cc4)c4nc(c(-c5ccc(S(=O)(=O)O)cc5)c5ccc2[nH]5)C=C4)C=C3)cc1` registered a half-inhibitory concentration (IC50) with MCF7 [13] of 11.8 µM. Moreover, in data set [24], the Drug uptake entry was “Active”.

The values are drawn from ChEMBL document CHEMBL3603754, “Mitochondria and DNA Targeting of 5,10,15,20-Tetrakis(7-sulfonatobenzo[b]thiophene) Porphyrin-Induced Photodynamic Therapy via Intrinsic and Extrinsic Apoptotic Cell Death” (J Med Chem, 2015).
